Assay results taken from patent US20250195567A1, “COMPOSITIONS FOR REMOVING MICROBIAL BIOFILM OR INHIBITING FORMATION THEREOF” (Prudentix Ltd., priority 2022, published 2025).

Legend:
[1] = pH of GLDA-PolyP combinations; type: physicochemical; details: No PolyP
Procedure: While acidic or basic environment in solution breakdown biofilm, it may be harmful for the human tissue at the periodontal pockets. In this experiment we thus measured the pH levels of the GLDA/PolyP combination that were tested in Example 5.

[2] = tested on: biofilm made of Streptococcus sanguis, Actinomyces naeslundii, Porphyromonas gingivalis, and Fusobacterium nucleatum; test: Removal of mature biofilm grown on hydroxyapatite or titanium disks, live/dead staining; type: cell-based; details: hydroxyapatite discs, GLDA alone at different concentrations
Procedure: Following assay calibration, biofilm made of Streptococcus sanguis, Actinomyces naeslundii, Porphyromonas gingivalis, and Fusobacterium nucleatum was grown on tooth surfaces (hydroxyapatite (HA) disks) or dental implants surfaces (sandblast acid-etched titanium surfaces, SLA).
The mature biofilms were washed in saline (control) or saline with PolyP (at 8% to 0.2% w/v) for 45 min at 37° C. The biofilm that remained on the disks was stained with live/dead fluorescent stains and analyzed using a florescence microscope. Results are shown as representative microscopic images (FIG. 1), and as a quantification of the florescence intensity in relative florescence units (RFU) (FIGS. 2-3).
In this experiment, the ability of the chelating agent GLDA to clear biofilm, either alone or in combination with PolyP at 0.02% and 0.5%, was tested. As described in Example 4, biofilm was grown and treated with the different solutions, and the residual biofilm was stained and quantified. The results are shown as a quantification of the florescence intensity in relative florescence units (RFU) (FIGS. 4-5).

## Tetrasodium N,N-bis(carboxymethyl)-L-glutamate [GLDA]
[1]; GLDA 0.05%
  pH: 7
[1]; GLDA 0.3%
  pH: 9.6
[1]; GLDA 1%
  pH: 11.5
[2]
  residual biofilm (fluorescence intensity): dose dependent efficacy
